Broadly, the IC50 is the concentration at which inhibition is half-maximal. High values mean weaker potency in that assay, low ones greater potency in that assay. As a reminder, the % Inhibition is the relative decrease from the control value, in per cent.

The target in series [1] is benzodiazepine receptor. Briefly: Benzodiazepine-receptor binding assay ([3H]-flunitrazepam displacement, ox cerebral cortex synaptosomal preparation). The settings on record: for IC50: [3H]-flunitrazepam 1 nM, pH 7.4. As for the experimental part:
The present compounds have shown activity in a benzodiazepine-receptor binding assay which uses a tritiated ligand specific for the receptor present on the purified GABA-Bz-Cl^- ionophore receptor complex. The details of the assay are set out in Example 5 which follows.
The receptor extract was a crude synaptosomal preparation isolated from ox cerebral cortex by the method of Lang et al (FEBS Lett., 104 149-153, 1979). Receptor binding was determined using a modification described by O'Beirne and Williams (Eur. J. Biochem, 175 413-421, 1988) of the method of Braestrup and Squires (PNAS 74 3805-3809, 1977). The receptor preparation was incubated in 50 mM Tris/Cl, pH 7.4, with compound A and [^3 H]-flunitrazepam (agonist) at a final concentration of 1 nM. Bound radioligand was harvested on to glass fibre filters and measured by liquid scintillation counting. Non-specific binding was determined by displacement of ligand with Diazepam (1 μM).
Binding data were fitted to one or two site models by weighted non-linear regression analysis using the computer programs `LIGAND` (Munson and Rodbard: Analytic Biochem 107 220-239, 1980) and `EBDA` (McPherson-Computer Prog. in Biomed. 7 107-114, 1983).
The method described above was repeated using each of compounds B and C described in Examples 3 and 4 respectively, and also using compound D, which is the sodium salt of compound A.
IC50 values were also determined for compounds A', E and F described in Examples 5 to 7 respectively.

Series [2] in a line: Solubility in organic solvents. Type of series: physicochemical. The settings on record: solvents in which soluble.

Consider `C/C1=C\CC(C)(C)/C=C/C[C@@]2(C)Oc3c4c(c(O)c(O)c(=O)c3O)CO[C@H]4[C@@H]2CC1` [Compound B], for which the IC50 in series [1] was found to be 5 µM. In addition, the “% Inhibition” value in series [1] (concentration 18 nM) amounted to 21%; in series [1] (concentration 53 nM), 21%; in series [1] (concentration 177 nM) it was 36%; in series [1] (concentration 530 nM), 42%; in series [1] (concentration 2 μM), 53%; in series [1] (concentration 5 μM), 69%. For the same molecule, the “% Inhibition” value is reported as 82% in series [1] (concentration 18 μM), 92% in series [1] (concentration 53 μM) and 78% in series [1] (concentration 177 μM). In addition, in series [2], the Solubility result is reported as “Methanol, ethyl acetate, chloroform, acetone”.

In series [1], `C/C1=C\CC(C)(C)/C=C/C[C@@]2(C)OC3=C(O)C(=O)[C@H]4CO[C@H]([C@@H]34)[C@@H]2CC1` [Compound D] had an IC50 of 0.01 µM. Also, the “% Inhibition” value in series [1] (concentration 5 nM) is reported as 45%; in series [1] (concentration 10 nM), 45%; in series [1] (concentration 50 nM) it was 70%; in series [1] (concentration 100 nM), 65%; in series [1] (concentration 500 nM) it was 81%; in series [1] (concentration 1 μM), 86%. The “% Inhibition” value turned out to be 98% in series [1] (concentration 5 μM), 100% in series [1] (concentration 10 μM), 103% in series [1] (concentration 50 μM) and 92% in series [1] (concentration 100 μM).

In turn, `C/C1=C\CC(C)(C)/C=C/C[C@@]2(C)Oc3c4c(cc(O)c(=O)c3O)CO[C@H]4[C@@H]2CC1` [Compound C] displayed an IC50 in series [1] of 20 µM. In addition, the “% Inhibition” value in series [1] (concentration 80 nM) was 9%; in series [1] (concentration 240 nM) it was -3%; in series [1] (concentration 800 nM), 9%; in series [1] (concentration 2 μM) it was 12%; in series [1] (concentration 8 μM) it was 35%; in series [1] (concentration 24 μM), 54%. Moreover, the “% Inhibition” value in series [1] (concentration 80 μM) stood at 77%; in series [1] (concentration 242 μM), 88%. The Solubility entry in series [2] is recorded as “Methanol, acetone, ethyl acetate”.

Molecule `C/C1=C\CC(C)(C)/C=C/C[C@@]2(C)Oc3c(O)c(O)cc4c3[C@@H](OC4)[C@@H]2CC1` [Compound E] registered a 50% inhibitory concentration (IC50) in series [1] of 0.5 µM. Besides, the “% Inhibition” value stood at 101% in series [1] (concentration 4.8 × 10^-5 M); 88% in series [1] (concentration 4.8 × 10^-6 M); 52% in series [1] (concentration 4.8 × 10^-7 M); 37% in series [1] (concentration 4.8 × 10^-8 M); 22% in series [1] (concentration 4.8 × 10^-9 M); 104% in series [1] (concentration 9.5 × 10^-5 M). In addition, the “% Inhibition” value in series [1] (concentration 9.5 × 10^-6 M) is 93%; in series [1] (concentration 9.5 × 10^-7 M) it was 65%; in series [1] (concentration 9.5 × 10^-8 M), 42%; in series [1] (concentration 9.5 × 10^-9 M), 27%. The Solubility result in series [2] was “methanol, ethyl acetate”.

In series [1], `C/C1=C\CC(C)(C)/C=C/C[C@@]2(C)OC3=C4C(=CC(=O)C3=O)CO[C@H]4[C@@H]2CC1` [Compound F] yielded an IC50 of 3 µM. For the same molecule, the “% Inhibition” value in series [1] (concentration 2.7 × 10^-4 M) is reported as 94%; in series [1] (concentration 2.7 × 10^-5 M), 77%; in series [1] (concentration 2.7 × 10^-6 M) it was 48%; in series [1] (concentration 2.7 × 10^-7 M), 33%; in series [1] (concentration 2.7 × 10^-8 M), 24%; in series [1] (concentration 9.0 × 10^-5 M), 89%. Also, the “% Inhibition” value in series [1] (concentration 9.0 × 10^-6 M) was determined as 65%; in series [1] (concentration 9.0 × 10^-7 M) it was 41%; in series [1] (concentration 9.0 × 10^-8 M), 27%; in series [1] (concentration 9.0 × 10^-9 M) it was 15%. In addition, the Solubility result in series [2] was “methanol”.

On to `C/C1=C\CC(C)(C)/C=C/C[C@@]2(C)OC3=C(O)C(=O)[C@H]4CO[C@H]([C@@H]34)[C@@H]2CC1` [Compound A], for which the IC50 in series [1] stood at 0.04 µM. Further, the “% Inhibition” value is given as 11% in series [1] (concentration 3 nM); 35% in series [1] (concentration 9 nM); 44% in series [1] (concentration 28 nM); 65% in series [1] (concentration 93 nM); 80% in series [1] (concentration 280 nM); 92% in series [1] (concentration 930 nM). The “% Inhibition” value in series [1] (concentration 3 μM) was found to be 93%; in series [1] (concentration 9 μM) it was 99%; in series [1] (concentration 28 μM) it was 106%; in series [1] (concentration 93 μM), 107%. Moreover, the Solubility result in series [2] is recorded as “Methanol, acetone, ethyl acetate”.
